This is an account of results in paper PMC3274447, “Fermentation, Isolation, Structure, and antidiabetic activity of NFAT-133 produced by Streptomyces strain PM0324667” (AMB Express, 2011).

Values joined by “and” are separate entries in the source; they are usually repeats but may differ in a detail not shown here. Equal entries are not always repeated. Where two headings read alike, the source gives them in different places.

In data set [1] the test system is L6 rat skeletal muscle cells. Put plainly: Glucose uptake (14C-2-deoxyglucose) in insulin-sensitized differentiated L6 myotubes. In kind it is cell-based. As to conditions: for EC50: Rattus norvegicus, differentiated L6 myotubes in presence of insulin. As for the experimental part:
The metabolite extract library samples were screened for the ability to induce glucose uptake in insulin stimulated differentiated L6 myotubes. The L6 rat skeletal muscle cells were seeded into 96 well cell culture plates in complete medium (α-MEM + 10% fetal bovine serum + 1% penicillin-streptomycin solution) and maintained at 5% carbon dioxide (CO2) atmosphere. After 48 h, the medium was switched to α-MEM with 2% (v/v) fetal bovine serum (FBS) in order to initiate differentiation. Media change was ensured every 48 h. Compound treatment was conducted once the myoblasts differentiated to form myotubes. The differentiated and fused myotubes were starved in serum free α-MEM for 4 h, treated with samples and further incubated for 24 h. Following treatment and incubation, the cells were sensitized with insulin (200 nM) and incubated for 25 minutes. Radioactive glucose pulsing was done at 0.06 μCi/ml for 10 minutes. The reaction was terminated with cold KRPH buffer. The cell-associated radioactivity was determined by lysing the cells with Microscint PS™ followed by liquid scintillation counting ([Huang et al. 2002]). The assay was performed in triplicate.
For all experiments, the L6 myoblasts obtained from ATCC were used only up to passage seven and were utilized within two months post revival of a new vial.

For another data set, the target named is T1, human PPAR-γ (Homo sapiens, UniProt P37231).
T1 construct: expressed in transfected cells; host or cells: CV1 cells, transient transfection with lipofectamine
T1 sequence (P37231 1-505): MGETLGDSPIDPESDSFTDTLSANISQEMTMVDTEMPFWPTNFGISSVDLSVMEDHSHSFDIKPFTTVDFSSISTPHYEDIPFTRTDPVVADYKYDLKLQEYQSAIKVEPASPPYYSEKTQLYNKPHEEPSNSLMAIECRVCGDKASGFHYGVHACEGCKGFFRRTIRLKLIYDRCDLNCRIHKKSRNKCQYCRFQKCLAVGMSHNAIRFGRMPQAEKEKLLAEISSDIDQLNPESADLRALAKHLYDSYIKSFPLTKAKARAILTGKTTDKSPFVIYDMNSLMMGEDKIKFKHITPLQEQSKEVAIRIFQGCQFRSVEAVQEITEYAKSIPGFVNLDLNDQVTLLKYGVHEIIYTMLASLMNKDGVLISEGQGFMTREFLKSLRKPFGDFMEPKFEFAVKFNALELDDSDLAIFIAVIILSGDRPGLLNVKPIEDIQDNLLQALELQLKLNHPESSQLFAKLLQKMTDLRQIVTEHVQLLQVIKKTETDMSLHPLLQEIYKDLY
Put plainly: PPAR-γ luciferase assay in transfected CV1 cells. As to conditions: for % hPPAR-γ activation: relative to 1 μM rosiglitazone = 100%, n = 3. In kind it is cell-based. As for the experimental part:
PPAR-γ activation is one of the key mechanisms involved in glucose uptake. […] CV1 cells were seeded onto 24 well plates and transient transfections were conducted after over-night incubation using lipofectamine (Invitrogen, CA, USA). Five hours after transfection, the cells were treated with each compound concentration for an additional 24 h, and the luciferase assay (Promega) was performed according to the manufacture's protocol. Luminescence was measured using the Safire2 reader. […] The entire assay was performed in triplicates.

A short description of data set [2]: Pharmacokinetic profile in female db/db mice. Format: in vivo. As to conditions: for AUC(0-t) / Cmax / Tmax / half-life / AUC(0-inf): mouse, plasma; for AUC(0-inf): read-out: AUC 0-infinity. The source says: Similarly, troglitazone a PPAR-γ […] agonist increases glucose uptake by inducing GLUT4 translocation in L6 skeletal muscles ([Lessard et al. 2006]; [Yonemitsu et al. 2001]). However, these compounds are PPAR-γ agonists, and have several side-effects that cause increased body weight and hepaptoxicity on chronic exposure. […] Prior to planning an efficacy study we determined the pharmacokinetic profile of NFAT-133 (Figure 5, Table 4) using female db/db mice with n = 4 per time point. […] But, since the compound appeared to have a novel mechanism of action, we decided to explore its in vivo efficacy potential by attempting the intraperitoneal route of administration. NFAT-133 administered by the intraperitoneal route achieved plasma concentrations higher than the in vitro EC50 in skeletal muscles.
Figure 5 Pharmacokinetic data of NFAT-133 by oral (A) and intraperitoneal (B) absorption in female db/db mice at 30 mg/kg.

A further data set deals with db/db mice. Put plainly: In vivo activity in male db/db mice, 10 days b.i.d. On the procedure:
Male db/db mice (7-9 weeks of age) were housed in individually ventilated cages at room temperature of 22°C ± 2°C, humidity at 55 ± 5%, with a 12:12-h light: dark cycle and throughout the study period had access to water and standard chow ad libitum. The guidelines of the Committee for the Purpose of Control and Supervision of Experiments on Animals, Government of India, were followed and the in-house animal ethics committee approved all experimental procedures.
Male db/db mice were divided into three groups of 10 animals each with similar body weight and plasma glucose (mean ± S.E.M.) levels. […] Body weight was measured daily. On day 10, one hour after the last dose, mice were fasted for four hours so as to minimize the variability between the animals. Blood was collected from the fasted mice, plasma was separated by centrifugation (6000 g at 4°C for 7 minutes) and glucose was estimated using a biochemistry auto analyzer (Hitachi Science Systems Limited, Ibaraki, Japan). A small aliquot of separated plasma was stored at -20°C for estimation of insulin using an ELISA assay kit (Linco Research). Immediately after blood sample collection, mice were sacrificed, livers excised and weighed. The data was reproducible in two independent experiments.
All the results are expressed as Mean ± S.E.M. Statistical analysis was done using GraphPad Prism 4 (version 4.03, GraphPad Software, Inc., CA, USA). For comparison between means of more than two groups one-way analysis of variance (ANOVA) followed by Dunnett's post-hoc analysis was employed.

Data set [3] concerns transcription factor - NFAT. Also noted: method as in Burres et al.1995. The conditions noted are these: Jurkat T-cells; ref Burres et al.1995; cited from earlier work.
Data set [4] has as its system splenocytes derived from Balb/c and C57BL/6 mice. On the set-up: method as in Burres et al.1995. As to conditions: splenocytes from Balb/c and C57BL/6 mice in vitro; ref Burres et al.1995; cited from earlier work.
Setting [5] is: 100 mg/kg i.p. b.i.d. 10 days, P < 0.001 vs. vehicle.

For `CC(=O)C(C)C(O)C(C)c1ccc(C)cc1/C=C\CO` (stereo not shown) [NFAT-133], the EC50 in data set [1] turned out to be 6.3 ± 1.8 µM. The “% hPPAR-γ activation” value at human PPAR-γ (30 μM) amounted to 0.2%. Also, the “% hPPAR-γ activation” value at human PPAR-γ (100 μM) is listed as 9.0%. Further, the “PPAR-γ activity” value at human PPAR-γ (concentrations as high as 100 μM) is recorded as “does not induce PPAR-γ activity”. The “oral bioavailability” value in data set [2] is recorded as “poor oral bioavailability”. Also, in data set [2] (30 mg/kg IP), the AUC(0-t) was 3220 ng·h/mL; the Cmax was 11700 ng/mL and 42.2 µM; the Tmax came out at 4.8 min; the half-life was 112 min. In addition, the AUC(0-inf) in data set [2] (30 mg/kg IP) was 3550 ng·h/mL. Moreover, in data set [2] (30 mg/kg oral), the AUC(0-t) was found to be 630 ng·h/mL; the Cmax is 3410 ng/mL and 12.3 µM; the Tmax stood at 4.8 min; the half-life is 9.6 min. In data set [2] (30 mg/kg oral), the AUC(0-inf) stood at 650 ng·h/mL. In the data set with db/db mice (setting [5]), the “plasma glucose levels as compared to vehicle treated animals” value is on record as “significant reduction” and the “plasma insulin levels as compared to vehicle treated animals” value is listed as “significant reduction”. The compound also returned a liver weight in the data set on db/db mice (100 mg/kg ip b.i.d. 10 days) of 2.0 ± 0.1 g. Besides, in the data set on db/db mice (100 mg/kg ip b.i.d. 10 days, Mean ± S.E.M., n = 10), the “% Change in body weight” value is -1.08 ± 1.21% and -1.1 ± 1.2 %. In the data set on db/db mice (100 mg/kg ip b.i.d. 10 days, Mean ± S.E.M., n = 10, the values are: liver weight), this compound yielded a liver weight of 2 ± 0.1 g. The “activation of the transcription factor NFAT” value in data set [3] is recorded as “inhibit the activation”. The proliferation of splenocytes entry in data set [4] is listed as “block proliferation”.

As to `CN(CCOc1ccc(CC2SC(=O)NC2=O)cc1)c1ccccn1` (stereo not shown) [Rosiglitazone, rosiglitazone, reference compound], the “Inference (glucose uptake activity)” value in data set [1] (4 μg/ml) is recorded as “Active”. In data set [1], the half-maximal effective concentration (EC50) was determined as 6.9 ± 1.8 µM. For the same compound, the liver weight in the data set on db/db mice (5 mg/kg po b.i.d. 10 days) was 2.7 ± 0.1 g; with db/db mice (5 mg/kg po b.i.d. 10 days, Mean ± S.E.M., n = 10, the values are: liver weight) it was 2.6 ± 0.1 g. In addition, the “% Change in body weight” value stood at 14.6 ± 0.8 % in the data set with db/db mice (5 mg/kg po b.i.d. 10 days, Mean ± S.E.M., n = 10) and 14.63 ± 0.85% with db/db mice (5 mg/kg po b.i.d. 10 days, Mean ± S.E.M., n = 10, listed as rosiglitazone).

For orientation: EC50 means the concentration that produces a half-maximal response. Broadly, the AUC(0-t) is exposure summed from dosing to a finite time, without extrapolation to infinity. Low values mean low exposure, high ones high exposure. Broadly, the Cmax is the maximum level reached in the sampled fluid or tissue. The term Tmax denotes the time at which the peak concentration occurs. Broadly, the half-life is the time needed for the level to fall by half in the phase considered. Read a high half-life as slow loss.
